{"source": "paper PMC8800111", "about": "(The Journal of Biological Chemistry, 2021)", "assay_type_in_all_cases": "cell-based", "key": {"[1]": {"molecular_target": "proteins of U3A human fibrosarcoma cells (4462 proteins detected) (Homo sapiens, UniProt O60684)", "settings": "protein KPNA6; U3A cells"}, "[2]": {"molecular_target": "proteins of U3A human fibrosarcoma cells (4462 proteins detected) (Homo sapiens, UniProt O75643)", "settings": "protein SNRNP200; soluble abundance after heat, U3A cells"}, "[3]": {"molecular_target": "proteins of U3A human fibrosarcoma cells (4462 proteins detected) (Homo sapiens, UniProt P02786)", "sequence (P02786 whole entry)": "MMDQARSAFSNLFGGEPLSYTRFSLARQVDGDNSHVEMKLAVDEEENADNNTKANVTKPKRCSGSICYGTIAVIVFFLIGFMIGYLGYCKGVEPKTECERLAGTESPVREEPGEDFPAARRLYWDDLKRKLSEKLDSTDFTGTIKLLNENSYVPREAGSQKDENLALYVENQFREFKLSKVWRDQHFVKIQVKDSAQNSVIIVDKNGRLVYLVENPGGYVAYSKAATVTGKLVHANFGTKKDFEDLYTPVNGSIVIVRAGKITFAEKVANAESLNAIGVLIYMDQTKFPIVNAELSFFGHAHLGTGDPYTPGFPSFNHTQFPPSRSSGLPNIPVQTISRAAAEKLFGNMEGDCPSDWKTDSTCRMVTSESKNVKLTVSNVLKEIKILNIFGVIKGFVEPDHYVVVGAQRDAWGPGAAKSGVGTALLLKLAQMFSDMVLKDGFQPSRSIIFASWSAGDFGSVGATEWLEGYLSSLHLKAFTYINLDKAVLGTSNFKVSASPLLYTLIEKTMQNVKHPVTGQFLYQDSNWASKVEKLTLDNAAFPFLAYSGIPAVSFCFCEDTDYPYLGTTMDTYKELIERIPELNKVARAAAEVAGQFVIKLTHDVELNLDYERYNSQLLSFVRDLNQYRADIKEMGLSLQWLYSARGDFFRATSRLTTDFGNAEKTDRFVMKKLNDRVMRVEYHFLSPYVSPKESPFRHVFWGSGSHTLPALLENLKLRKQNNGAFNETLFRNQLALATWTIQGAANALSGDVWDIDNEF", "settings": "protein TFRC; U3A cells"}, "[4]": {"molecular_target": "proteins of U3A human fibrosarcoma cells (4462 proteins detected) (Homo sapiens, UniProt P37837)", "settings": "protein TALDO1, U3A cells"}, "[5]": {"molecular_target": "proteins of U3A human fibrosarcoma cells (4462 proteins detected) (Homo sapiens, UniProt P48507)", "settings": "protein GCLM; U3A cells"}, "[6]": {"molecular_target": "proteins of U3A human fibrosarcoma cells (4462 proteins detected) (Homo sapiens, UniProt P48637)", "settings": "protein GSS; soluble abundance after heat, U3A cells"}, "[7]": {"molecular_target": "proteins of U3A human fibrosarcoma cells (4462 proteins detected) (Homo sapiens, UniProt P52823)", "settings": "protein STC1; U3A, 10 μM, 2 h"}, "[8]": {"molecular_target": "proteins of U3A human fibrosarcoma cells (4462 proteins detected) (Homo sapiens, UniProt P62487)", "settings": "protein POLR2G; U3A cells"}, "[9]": {"molecular_target": "proteins of U3A human fibrosarcoma cells (4462 proteins detected) (Homo sapiens, UniProt P62906)", "settings": "protein RPL10A; U3A cells"}, "[10]": {"molecular_target": "proteins of U3A human fibrosarcoma cells (4462 proteins detected) (Homo sapiens, UniProt P63096)", "settings": "protein GNAI1; soluble abundance after heat, U3A cells"}, "[11]": {"molecular_target": "proteins of U3A human fibrosarcoma cells (4462 proteins detected) (Homo sapiens, UniProt Q12905)", "sequence (Q12905 whole entry)": "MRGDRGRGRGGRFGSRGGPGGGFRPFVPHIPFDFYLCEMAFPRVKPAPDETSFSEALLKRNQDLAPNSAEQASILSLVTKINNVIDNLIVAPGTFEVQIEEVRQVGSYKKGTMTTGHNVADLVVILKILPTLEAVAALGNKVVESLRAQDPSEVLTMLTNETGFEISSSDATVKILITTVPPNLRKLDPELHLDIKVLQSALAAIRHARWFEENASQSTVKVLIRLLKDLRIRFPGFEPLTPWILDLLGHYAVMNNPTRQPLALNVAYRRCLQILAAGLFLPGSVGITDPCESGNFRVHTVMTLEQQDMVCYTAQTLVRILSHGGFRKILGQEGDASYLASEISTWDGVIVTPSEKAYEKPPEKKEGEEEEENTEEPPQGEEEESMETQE", "settings": "protein ILF2; U3A cells"}, "[12]": {"molecular_target": "proteins of U3A human fibrosarcoma cells (4462 proteins detected) (Homo sapiens, UniProt Q13217)", "sequence (Q13217 32-504)": "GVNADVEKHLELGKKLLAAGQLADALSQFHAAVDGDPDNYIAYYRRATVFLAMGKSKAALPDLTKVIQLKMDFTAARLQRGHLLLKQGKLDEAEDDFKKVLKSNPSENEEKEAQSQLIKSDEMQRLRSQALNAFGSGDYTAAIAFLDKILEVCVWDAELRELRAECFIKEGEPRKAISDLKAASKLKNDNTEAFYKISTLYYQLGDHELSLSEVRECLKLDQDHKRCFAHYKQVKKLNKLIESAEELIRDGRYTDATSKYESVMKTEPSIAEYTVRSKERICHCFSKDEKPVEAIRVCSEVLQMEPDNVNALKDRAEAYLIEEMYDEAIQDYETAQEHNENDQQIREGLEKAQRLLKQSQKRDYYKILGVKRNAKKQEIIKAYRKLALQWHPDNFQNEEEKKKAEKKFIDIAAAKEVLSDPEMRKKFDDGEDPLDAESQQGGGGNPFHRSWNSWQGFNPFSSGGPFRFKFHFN", "settings": "protein DNAJC3; soluble abundance after heat, U3A cells"}, "[13]": {"molecular_target": "proteins of U3A human fibrosarcoma cells (4462 proteins detected) (Homo sapiens, UniProt Q13303)", "settings": "protein KCNAB2, U3A cells"}, "[14]": {"molecular_target": "proteins of U3A human fibrosarcoma cells (4462 proteins detected) (Homo sapiens, UniProt Q13330)", "settings": "protein MTA1; U3A cells"}, "[15]": {"molecular_target": "proteins of U3A human fibrosarcoma cells (4462 proteins detected) (Homo sapiens, UniProt Q14839)", "settings": "protein CHD4; soluble abundance after heat, U3A cells"}, "[16]": {"molecular_target": "proteins of U3A human fibrosarcoma cells (4462 proteins detected) (Homo sapiens, UniProt Q15149)", "settings": "protein PLEC; soluble abundance after heat, U3A cells"}, "[17]": {"molecular_target": "proteins of U3A human fibrosarcoma cells (4462 proteins detected) (Homo sapiens, UniProt Q16666)", "settings": "protein IFI16; soluble abundance after heat, U3A cells"}, "[18]": {"molecular_target": "proteins of U3A human fibrosarcoma cells (4462 proteins detected) (Homo sapiens, UniProt Q27J81)", "settings": "protein INF2, U3A cells"}, "[19]": {"molecular_target": "proteins of U3A human fibrosarcoma cells (4462 proteins detected) (Homo sapiens, UniProt Q5VW36)", "sequence (Q5VW36 whole entry)": "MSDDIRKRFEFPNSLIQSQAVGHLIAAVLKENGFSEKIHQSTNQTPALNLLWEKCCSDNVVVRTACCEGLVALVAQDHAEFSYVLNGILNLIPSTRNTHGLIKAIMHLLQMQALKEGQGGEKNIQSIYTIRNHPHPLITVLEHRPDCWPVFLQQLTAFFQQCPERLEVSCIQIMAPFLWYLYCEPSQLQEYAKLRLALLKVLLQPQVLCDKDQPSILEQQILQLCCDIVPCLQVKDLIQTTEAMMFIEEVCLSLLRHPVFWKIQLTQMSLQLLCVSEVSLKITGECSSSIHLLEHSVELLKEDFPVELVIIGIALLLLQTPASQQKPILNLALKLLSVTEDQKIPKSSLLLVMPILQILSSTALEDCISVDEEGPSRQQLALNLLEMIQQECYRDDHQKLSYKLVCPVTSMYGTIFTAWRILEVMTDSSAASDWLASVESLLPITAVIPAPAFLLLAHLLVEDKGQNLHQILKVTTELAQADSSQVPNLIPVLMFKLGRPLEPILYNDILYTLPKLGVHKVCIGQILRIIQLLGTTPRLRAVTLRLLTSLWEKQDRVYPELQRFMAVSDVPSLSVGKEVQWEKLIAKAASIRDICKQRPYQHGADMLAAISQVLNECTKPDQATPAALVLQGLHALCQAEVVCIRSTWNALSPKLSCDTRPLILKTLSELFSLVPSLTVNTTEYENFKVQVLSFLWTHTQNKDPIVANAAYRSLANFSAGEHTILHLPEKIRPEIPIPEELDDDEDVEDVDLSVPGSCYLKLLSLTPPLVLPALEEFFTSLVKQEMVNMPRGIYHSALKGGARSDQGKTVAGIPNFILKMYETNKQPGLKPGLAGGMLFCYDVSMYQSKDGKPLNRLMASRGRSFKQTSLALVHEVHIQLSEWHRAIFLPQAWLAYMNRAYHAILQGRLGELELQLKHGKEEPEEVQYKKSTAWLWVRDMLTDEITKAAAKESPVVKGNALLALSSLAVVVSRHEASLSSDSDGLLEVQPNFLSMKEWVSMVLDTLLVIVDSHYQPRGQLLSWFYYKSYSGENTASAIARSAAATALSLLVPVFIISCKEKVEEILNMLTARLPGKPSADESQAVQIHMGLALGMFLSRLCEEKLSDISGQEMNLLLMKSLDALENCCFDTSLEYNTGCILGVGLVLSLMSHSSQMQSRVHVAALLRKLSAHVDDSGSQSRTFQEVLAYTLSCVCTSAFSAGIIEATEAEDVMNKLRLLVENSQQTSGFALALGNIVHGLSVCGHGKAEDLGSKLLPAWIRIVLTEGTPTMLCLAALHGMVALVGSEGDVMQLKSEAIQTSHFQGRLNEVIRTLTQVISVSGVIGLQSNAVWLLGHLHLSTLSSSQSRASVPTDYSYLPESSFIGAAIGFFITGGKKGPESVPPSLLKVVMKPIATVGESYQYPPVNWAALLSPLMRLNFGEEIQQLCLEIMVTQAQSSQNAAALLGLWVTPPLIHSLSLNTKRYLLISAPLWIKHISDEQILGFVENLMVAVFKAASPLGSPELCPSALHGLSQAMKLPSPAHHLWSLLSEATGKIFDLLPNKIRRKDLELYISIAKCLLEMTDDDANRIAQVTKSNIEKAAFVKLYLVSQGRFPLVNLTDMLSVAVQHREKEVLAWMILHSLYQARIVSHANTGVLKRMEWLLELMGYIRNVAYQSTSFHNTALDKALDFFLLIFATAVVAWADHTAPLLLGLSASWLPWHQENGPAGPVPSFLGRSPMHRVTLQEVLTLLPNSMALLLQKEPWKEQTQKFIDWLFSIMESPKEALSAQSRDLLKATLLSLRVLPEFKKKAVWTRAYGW", "settings": "protein FOCAD; U3A cells"}, "[20]": {"molecular_target": "proteins of U3A human fibrosarcoma cells (4462 proteins detected) (Homo sapiens, UniProt Q6N063)", "settings": "protein OGFOD2; U3A cells"}, "[21]": {"molecular_target": "proteins of U3A human fibrosarcoma cells (4462 proteins detected) (Homo sapiens, UniProt Q8WUR7)", "sequence (Q8WUR7 whole entry)": "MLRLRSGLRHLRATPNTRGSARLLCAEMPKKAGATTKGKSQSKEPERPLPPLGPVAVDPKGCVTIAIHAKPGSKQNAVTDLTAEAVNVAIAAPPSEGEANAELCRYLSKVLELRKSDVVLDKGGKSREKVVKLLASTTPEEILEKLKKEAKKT", "settings": "protein C15orf40, U3A cells"}, "[22]": {"molecular_target": "proteins of U3A human fibrosarcoma cells (4462 proteins detected) (Homo sapiens, UniProt Q969G3)", "sequence (Q969G3 whole entry)": "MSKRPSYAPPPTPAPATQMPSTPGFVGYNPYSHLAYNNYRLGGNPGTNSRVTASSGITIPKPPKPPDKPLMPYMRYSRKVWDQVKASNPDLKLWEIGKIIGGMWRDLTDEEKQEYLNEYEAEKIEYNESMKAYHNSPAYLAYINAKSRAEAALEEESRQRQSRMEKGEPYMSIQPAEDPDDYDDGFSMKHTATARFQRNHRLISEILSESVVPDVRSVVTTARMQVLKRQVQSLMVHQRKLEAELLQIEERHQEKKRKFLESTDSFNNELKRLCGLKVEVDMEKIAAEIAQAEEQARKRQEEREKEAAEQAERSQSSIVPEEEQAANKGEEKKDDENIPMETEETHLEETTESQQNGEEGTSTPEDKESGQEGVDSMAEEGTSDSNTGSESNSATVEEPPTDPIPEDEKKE", "settings": "protein SMARCE1, U3A cells"}, "[23]": {"molecular_target": "proteins of U3A human fibrosarcoma cells (4462 proteins detected) (Homo sapiens, UniProt Q969Z0)", "settings": "protein TBRG4; U3A cells"}, "[24]": {"molecular_target": "proteins of U3A human fibrosarcoma cells (4462 proteins detected) (Homo sapiens, UniProt Q96QG7)", "settings": "protein MTMR9; soluble abundance after heat, U3A cells"}, "[25]": {"molecular_target": "proteins of U3A human fibrosarcoma cells (4462 proteins detected) (Homo sapiens, UniProt Q99873)", "settings": "protein PRMT1, U3A cells"}, "[26]": {"molecular_target": "proteins of U3A human fibrosarcoma cells (4462 proteins detected) (Homo sapiens, UniProt Q9NTZ6)", "settings": "protein RBM12; soluble abundance after heat, U3A cells"}, "[27]": {"molecular_target": "proteins of U3A human fibrosarcoma cells (4462 proteins detected) (Homo sapiens, UniProt Q9NXR8)", "settings": "protein ING3, U3A cells"}, "[28]": {"molecular_target": "proteins of U3A human fibrosarcoma cells (4462 proteins detected) (Homo sapiens, UniProt Q9UK41)", "settings": "protein VPS28; U3A cells"}, "[29]": {"molecular_target": "proteins of U3A human fibrosarcoma cells (4462 proteins detected) (Homo sapiens, UniProt Q9Y5N6)", "sequence (Q9Y5N6 whole entry)": "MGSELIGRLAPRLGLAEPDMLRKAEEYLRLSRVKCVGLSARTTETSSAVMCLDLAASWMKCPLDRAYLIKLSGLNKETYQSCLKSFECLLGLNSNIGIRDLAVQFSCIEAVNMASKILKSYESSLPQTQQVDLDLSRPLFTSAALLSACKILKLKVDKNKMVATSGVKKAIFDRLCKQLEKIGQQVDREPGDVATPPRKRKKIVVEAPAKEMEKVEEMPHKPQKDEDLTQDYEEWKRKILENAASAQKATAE", "settings": "protein ORC6; U3A cells"}, "[30]": {"molecular_target": "proteins of U3A human fibrosarcoma cells (4462 proteins detected) (Homo sapiens, UniProt Q9Y6A4)", "sequence (Q9Y6A4 whole entry)": "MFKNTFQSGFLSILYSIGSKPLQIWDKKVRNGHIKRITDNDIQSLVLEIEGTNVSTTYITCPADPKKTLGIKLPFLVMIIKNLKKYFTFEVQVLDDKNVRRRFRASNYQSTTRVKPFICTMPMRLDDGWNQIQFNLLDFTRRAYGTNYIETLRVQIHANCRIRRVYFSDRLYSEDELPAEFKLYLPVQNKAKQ", "settings": "protein CFAP20; soluble abundance after heat, U3A cells"}}, "data": [{"smiles": "CCc1nc(N)nc(N)c1-c1ccc(Cl)cc1", "note": "[pyrimethamine]", "values": [{"measurement": "Log2 (PYR/DMSO)", "setting": "[1]", "result": 0.24}, {"measurement": "Log2 (PYR/DMSO)", "setting": "[2]", "result": 0.15}, {"measurement": "Log2 (PYR/DMSO)", "setting": "[3]", "result": 0.16}, {"measurement": "Log2 (PYR/DMSO)", "setting": "[4]", "result": -0.04}, {"measurement": "Log2 (PYR/DMSO)", "setting": "[5]", "result": 0.20}, {"measurement": "Log2 (PYR/DMSO)", "setting": "[6]", "result": 0.14}, {"measurement": "Log2 (PYR/DMSO), STC1", "setting": "[7]", "result": 0.25}, {"measurement": "Log2 (PYR/DMSO)", "setting": "[8]", "result": 0.18}, {"measurement": "Log2 (PYR/DMSO)", "setting": "[9]", "result": 0.17}, {"measurement": "Log2 (PYR/DMSO)", "setting": "[10]", "result": 0.14}, {"measurement": "Log2 (PYR/DMSO)", "setting": "[11]", "result": 0.18}, {"measurement": "Log2 (PYR/DMSO)", "setting": "[12]", "result": 0.14}, {"measurement": "Log2 (PYR/DMSO)", "setting": "[13]", "result": -0.03}, {"measurement": "Log2 (PYR/DMSO)", "setting": "[14]", "result": 0.16}, {"measurement": "Log2 (PYR/DMSO)", "setting": "[15]", "result": 0.14}, {"measurement": "Log2 (PYR/DMSO)", "setting": "[16]", "result": 0.14}, {"measurement": "Log2 (PYR/DMSO)", "setting": "[17]", "result": 0.13}, {"measurement": "Log2 (PYR/DMSO)", "setting": "[18]", "result": -0.04}, {"measurement": "Log2 (PYR/DMSO)", "setting": "[19]", "result": 0.20}, {"measurement": "Log2 (PYR/DMSO)", "setting": "[20]", "result": 0.16}, {"measurement": "Log2 (PYR/DMSO)", "setting": "[21]", "result": -0.03}, {"measurement": "Log2 (PYR/DMSO)", "setting": "[22]", "result": -0.05}, {"measurement": "Log2 (PYR/DMSO)", "setting": "[23]", "result": 0.19}, {"measurement": "Log2 (PYR/DMSO)", "setting": "[24]", "result": 0.15}, {"measurement": "Log2 (PYR/DMSO)", "setting": "[25]", "result": -0.05}, {"measurement": "Log2 (PYR/DMSO)", "setting": "[26]", "result": 0.15}, {"measurement": "Log2 (PYR/DMSO)", "setting": "[27]", "result": -0.04}, {"measurement": "Log2 (PYR/DMSO)", "setting": "[28]", "result": 0.21}, {"measurement": "Log2 (PYR/DMSO)", "setting": "[29]", "result": 0.18}, {"measurement": "Log2 (PYR/DMSO)", "setting": "[30]", "result": 0.14}]}]}
